Experimental data taken from publication PMC7156724, “Potent BRD4 inhibitor suppresses cancer cell-macrophage interaction” (Nature Communications, 2020).
Several values for one entry are separate records, joined by “and”; a condition that tells them apart may be missing. Identical values can stand only once.

Columns and labels:
A2780 OC cells and TAMs = test: Orthotopic mouse OC model (intraperitoneal A2780 cells, with or without TAMs): tumor weight, ascitic fluid, IF and FACS; assay type: in vivo
Description: Shown are immunofluorescent staining of CD68 (macrophage marker, red) and E-Cadherin (cancer cells, green) (a) and quantification of CD68 positive cells (b) in vehicle, NHWD-870 treated H526 (n = 6) and A2780 (n = 5) tumors from Fig. 3a, b, respectively. Scale bar is 100 μm. […] Shown are representative immunofluorescent staining of Ki67 and CD68 (c) and quantification of percentage of Ki67+ cells in CD68+ cells (d). Scale bar is 30 μm. Data are presented as mean ± SEM of five different tumors. e Schematics of the animal experiments using an orthotopic mouse OC model, established by intraperitoneally injecting human A2780 cells into female recipient nude mice. Mice were then either untreated (Ctrl) or treated with NHWD-870 (PO, QD, 3 mg/kg) for 45 days. Half of the recipient mice received A2780 cells plus TAMs isolated from tumors of OC-bearing donor mice. f, g Tumor weights (f) and ascitic fluid volumes (g) at day 45 for mice in (e). […] Shown are representative immunofluorescent staining of Ki67 and CD68 (h) and quantification of Ki67^+CD68^− (i) or Ki67^+CD68^+ (j), or CD68^+ cells (k). Scale bar is 50 μm. Data are presented as mean ± SEM from five different mice. p values were calculated using two-tailed, unpaired t tests in this figure. *p < 0.05; **p < 0.01; ***p < 0.001. Source data are provided as a Source Data file.
To extend our findings, we examined the effects of NHWD-870 in an orthotopic mouse OC model, in which we intraperitoneally injected A2780 OC cells, alone or together with F4/80^+CD11b^+CD206^+ TAMs isolated from the tumor tissues of OC-bearing donor mice 3 days later (Fig. 4e). […] These phenotypes were due to increased proliferation of both tumor cells and macrophages (Ki67^+CD68^− and Ki67^+CD68^+ cells, respectively) (Fig. 4h–i, Ctrl+TAM vs Ctrl). […] The inability to rescue was not due to the limited amount of TAMs (Fig. 4k, CD68^+ cells and Supplementary Fig.11c, d, CD11b^+CD206^+ cells, NHWD-870+TAM vs Ctrl), but likely due to the limited number of proliferating TAMs (Fig. 4j, Ki67^+CD68^+ cells, NHWD-870+TAM vs Ctrl).
4–6 weeks old female BALB/c nude mice were used for most experiments, with the exception of 6–8 weeks old female C57BL/6 mice were used for B16F10 experiments, and 6–8 weeks old male BALB/c nude mice and SD rats were used for pharmacokinetic experiments. All animals were purchased from Shanghai SIPPR-Bk Lab Animal Co., Ltd. All animals were housed under a regimen of 12 h light/12 h dark cycles and specific pathogen-free conditions. 5×10^6 NCI-H526, ES-2, MDA-MB231, A2780, A375, B16F10, and TMD-8 cells (0.1 ml) were injected subcutaneously into female nude mice. The melanoma patient-derived xenograft model was derived from a human melanoma sample (BRAF, NARS and NF1 wild type, and p53 mutant) removed from a patient in Xiangya Hospital. Surgically removed tumor fragments were implanted subcutaneously into female NSG mice. […] Mouse body weight and tumor sizes were measured every 3 days. […] Ascitic volume and tumor weight were measured by an electronic balance. All the procedures were evaluated and approved by the Institutional Animal Care and Use Committee of Central South University and Yale University. […]
with anti-CD45, CD11b and CD206 followed by FACS analysis. Shown are representative FACS plots (c) and quantification of the percentage of CD11b+CD206+ cells (d). Data are presented as mean ± SEM from 5 different mice. p values were calculated using two-tailed, unpaired t tests. **, p<0.01; ***, p<0.001. […]

A2780 ovarian tumors = test: A2780 ovarian subcutaneous tumor growth; assay type: in vivo, mouse; conditions: for Tumor volume: Fig.3b a2780, 3mg/kg p.o. QD x 15D, n=5, individual animals, in mm³ (unit assumed)
Description: PO, oral administration; QD, once daily; BID, twice daily. b–d Tumor growth curves for A2780 ovarian tumor (n = 5) (b), TMD8 large B cell lymphoma (n = 6) (c), and B16F10 melanoma (n = 5) (d) bearing mice treated with the indicated compounds once daily for 11-21 days. e, f Tumor growth curves for A375 melanoma (n = 6) (e), and patient-derived xenograft (PDX) of melanoma (n = 5) (f) bearing mice treated with the indicated compounds once daily (5 days on, 2 days off) for 21 days. For d–f, NHWD-870 used is NHWD-870-HCl synthesized using Suzuki coupling route. Data are presented as mean ± SEM in (a, b, d, f) and mean + SEM in (c, e). p values were calculated using two-tailed, unpaired t tests. *p < 0.05; **p < 0.01; ***p < 0.001. Source data are provided as a Source Data file.
4–6 weeks old female BALB/c nude mice were used for most experiments, with the exception of 6–8 weeks old female C57BL/6 mice were used for B16F10 experiments, and 6–8 weeks old male BALB/c nude mice and SD rats were used for pharmacokinetic experiments. All animals were purchased from Shanghai SIPPR-Bk Lab Animal Co., Ltd. All animals were housed under a regimen of 12 h light/12 h dark cycles and specific pathogen-free conditions. 5×10^6 NCI-H526, ES-2, MDA-MB231, A2780, A375, B16F10, and TMD-8 cells (0.1 ml) were injected subcutaneously into female nude mice. The melanoma patient-derived xenograft model was derived from a human melanoma sample (BRAF, NARS and NF1 wild type, and p53 mutant) removed from a patient in Xiangya Hospital. Surgically removed tumor fragments were implanted subcutaneously into female NSG mice. When the tumors grew to ~1000 mm^3, they were harvested and cryopreserved or immediately re-implanted for expansion or experiments. Mouse body weight and tumor sizes were measured every 3 days. Once the tumors grew to 150–200 mm^3, mice were treated with the compounds as described in the Figures. 1 × 10^6 A2780 cells (1 ml) were injected into the abdominal cavity of nude mice. Ascitic volume and tumor weight were measured by an electronic balance. All the procedures were evaluated and approved by the Institutional Animal Care and Use Committee of Central South University and Yale University.

[1] = day 45, PO, QD, 3 mg/kg, +TAM, 3 mg/kg

Compound: Cc1nnn(C)c1-c1cnc2c3c4cnn(C)c4ccc3n([C@H](c3ccccc3)C3CCOCC3)c2c1 [NHWD-870]
- quantification of CD68+ cells (A2780 OC cells and TAMs; [1]): 15 and 17.9 and 19.9 and 12 and 16.7
- quantification of Ki67+CD68− cells (A2780 OC cells and TAMs; [1]): 10 and 7 and 13 and 9
- fold reduction, in vivo effects on TAMs (A2780 OC cells and TAMs; in vivo): ~ 16 fold
- inhibition of proliferating TAMs (A2780 OC cells and TAMs; mouse OC model, Fig. 4j): 94%
- proliferating TAMs (Ki67+CD68+ cells), mean (A2780 OC cells and TAMs; mouse OC model, Fig. 4j, Ctrl […]): 0.16%
- effect on tumor growth (A2780 ovarian tumors; A2780 ovarian tumors, oral once daily): strong tumor regression activity
- Tumor volume (A2780 ovarian tumors; day 3): 437 and 185 and 30 and 119 and 617
- Tumor volume (A2780 ovarian tumors; day 6): 183 and 151 and 27 and 79 and 405
- Tumor volume (A2780 ovarian tumors; day 9): 150 and 191 and 22 and 66 and 371
- Tumor volume (A2780 ovarian tumors; day 12): 110 and 138 and 20 and 56 and 270
- Tumor volume (A2780 ovarian tumors; day 15): 91 and 72 and 18 and 40 and 78
